PubChem BioAssay (NCI)
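48-hour exposure; five concentrations; linearly interpolated endpoints. Definition used: TGI = concentration required for complete inhibition of growth.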

How the values were obtained:
Assay in all cases: NCI-60 cell line screen, 48 h
SK-OV-3 ovarian = system: SK-OV-3 ovarian
SF-268 CNS = system: SF-268 CNS
CCRF-CEM leukemia = system: CCRF-CEM leukemia
M14 melanoma = system: M14 melanoma
SK-MEL-2 melanoma = system: SK-MEL-2 melanoma
MOLT-4 leukemia = system: MOLT-4 leukemia
NCI-H23 lung = system: NCI-H23 lung
U251 CNS = system: U251 CNS
UO-31 renal = system: UO-31 renal
HOP-92 NSCLC = system: HOP-92 NSCLC
NCI-H460 lung = system: NCI-H460 lung
IGROV1 ovarian = system: IGROV1 ovarian
OVCAR-4 ovarian = system: OVCAR-4 ovarian
HCT-15 colon = system: HCT-15 colon
M19-MEL melanoma = system: M19-MEL melanoma
786-0 renal = system: 786-0 renal
HL-60(TB) leukemia = system: HL-60(TB) leukemia
LXFL 529 NSCLC = system: LXFL 529 NSCLC
DLD-1 colon = system: DLD-1 colon
TK-10 renal = system: TK-10 renal
OVCAR-5 ovarian = system: OVCAR-5 ovarian
HOP-18 NSCLC = system: HOP-18 NSCLC
SF-295 CNS = system: SF-295 CNS
SK-MEL-28 melanoma = system: SK-MEL-28 melanoma
A549 NSCLC = system: A549 NSCLC
SNB-78 CNS = system: SNB-78 CNS
SF-539 CNS = system: SF-539 CNS
SNB-75 CNS = system: SNB-75 CNS
KM12 colon = system: KM12 colon
XF 498 CNS = system: XF 498 CNS
K-562 leukemia = system: K-562 leukemia
HT29 colon = system: HT29 colon
SN12C renal = system: SN12C renal
HCT-116 colon = system: HCT-116 colon
DMS 273 small cell lung = system: DMS 273 small cell lung
MALME-3M melanoma = system: MALME-3M melanoma
COLO 205 colon = system: COLO 205 colon
RPMI-8226 leukemia = system: RPMI-8226 leukemia
HCC-2998 colon = system: HCC-2998 colon
NCI-H226 lung = system: NCI-H226 lung
ACHN renal = system: ACHN renal
OVCAR-8 ovarian = system: OVCAR-8 ovarian
OVCAR-3 ovarian = system: OVCAR-3 ovarian
UACC-257 melanoma = system: UACC-257 melanoma

Measured: TGI

CSC1(C)CC2C(CC1N1CCCCC1)C2(C)C (centres undefined)
> 100 µM: SK-OV-3 ovarian | SF-268 CNS | CCRF-CEM leukemia | M14 melanoma | SK-MEL-2 melanoma | MOLT-4 leukemia | NCI-H23 lung | U251 CNS | UO-31 renal | HOP-92 NSCLC | NCI-H460 lung | IGROV1 ovarian | OVCAR-4 ovarian | HCT-15 colon | M19-MEL melanoma | 786-0 renal | HL-60(TB) leukemia | LXFL 529 NSCLC | DLD-1 colon | TK-10 renal | OVCAR-5 ovarian | HOP-18 NSCLC | SF-295 CNS | SK-MEL-28 melanoma | A549 NSCLC | SNB-78 CNS | SF-539 CNS | SNB-75 CNS | KM12 colon | XF 498 CNS | K-562 leukemia | HT29 colon | SN12C renal | HCT-116 colon | DMS 273 small cell lung | MALME-3M melanoma | COLO 205 colon | RPMI-8226 leukemia | HCC-2998 colon | NCI-H226 lung | ACHN renal | OVCAR-8 ovarian | OVCAR-3 ovarian | UACC-257 melanoma
